# Laboratory results taken from PMC10721329, “Quisinostat is a brain-penetrant radiosensitizer in glioblastoma” (JCI Insight, 2023).
# Values joined by “and” are separate entries in the source; they are usually repeats but may differ in a detail not shown here. Equal values may be shown once.
# What was measured:
# Test in all cases: CellTiter-Glo dose-response cell viability assay
# Format in all cases: cell-based, human
# [1] = test system: BT145 patient-derived GSC line; details: no IR
# Protocol: (§1) QST (JNJ-26481585) is a second-generation hydroxamic acid harboring remarkable selectivity toward class I HDACs, with a biochemical IC50 of 0.1 nM for HDAC1 ([13]). […] To determine the cytotoxic effects of QST, we performed a dose-titration cell viability assay in 7 patient-derived GSC lines (BT145, GB187, GB239, GB282, GB71, GB82, and GB126) and 1 long-term serum-grown human GBM cell line (U87). Because GBMs display a high degree of intratumoral heterogeneity, we used GSCs derived from both primary and recurrent GBMs that harbored distinct genetic mutations or aberrations, growth rates, MGMT promoter methylation status, and gene expression profiles (Supplemental Figure 1; supplemental material available online with this article; https://doi.org/10.1172/jci.insight.167081DS1). Cell lines were treated with various concentrations of QST (10–1000 nM), and cell viability was measured 3–5 days later (Figure 1, A and B). […] Treatment with QST at the IC50 induced significant inhibition of proliferation (Ki67) and an increase in programmed cell death (cleaved caspase 3) in 2 different GSC lines (Figure 1, C and D). Additional analyses confirmed that QST induces apoptosis after short-term treatment through increased staining of the apoptotic marker annexin V (Figure 2A) and cell cycle arrest (in G2- or S-phase; Figure 2B and Supplemental Figure 1B).
# (§2) GSCs were seeded in laminin-coated tissue culture–treated 96-well plates (clear bottom, white plate; Corning) at a density of 1000–5000 cells per well (cell line dependent) in GSC media. U87-MG were seeded using their normal growth conditions without laminin (10% bovine calf serum in DMEM). All cells were incubated at 37°C and allowed to adhere overnight. The next day, cells were treated with incremental concentrations of QST (Selleckchem; 0, 10, 25, 50, 100, 250, 500, and 1000 nM) diluted in media. Cells treated without QST were treated with DMSO diluted in media. Following treatment with QST, cells were grown for 3 to 5 days (cell line dependent), and cell viability was measured and quantified. All cell viability measurements were performed using the CellTiter-Glo luminescent cell viability assay (Promega) following the manufacturer’s instructions. For the sulforhodamine B colorimetric assay for cytotoxicity, the protocol was performed as described elsewhere ([33]). All cell viability results represent the mean of at least 3 biological replicates, each containing 3 technical replicates.
# [2] = test system: GB126 patient-derived GSC line
# Protocol: as §1, §2
# [3] = test system: GB71 patient-derived GSC line
# Protocol: as §1, §2
# [4] = test system: GB239 patient-derived GSC line
# Protocol: as §1, §2
# [5] = Homo sapiens, QST 100 nM (log[nM] 2), read-out: Cell viability (fraction of DMSO control)
# [6] = Homo sapiens, QST 250 nM (log[nM] 2.39794), read-out: Cell viability (fraction of DMSO control)
# [7] = Homo sapiens, QST 500 nM (log[nM] 2.69897), read-out: Cell viability (fraction of DMSO control)
# [8] = Homo sapiens, QST 1000 nM (log[nM] 3), read-out: Cell viability (fraction of DMSO control)
smiles,measurement,setting,value
"Cn1cc(CNCC2CCN(c3ncc(C(=O)NO)cn3)CC2)c2ccccc21 [QST, quisinostat]",viability at 0.1 µM,[1]; [5],34.2%
same,viability at 0.25 µM,[1]; [6],25.7%
same,viability at 0.5 µM,[1]; [7],18.6%
same,viability at 1 µM,[1]; [8],13%
same,Cell viability (fraction of DMSO control),[1]; QST 10 nM (log[nM] 1),0.7896 and 0.7644
same,Cell viability (fraction of DMSO control),[1]; QST 25 nM (log[nM] 1.39794),0.7548 and 0.7039
same,Cell viability (fraction of DMSO control),[1]; QST 50 nM (log[nM] 1.69897),0.4986 and 0.5266
same,Cell viability (fraction of DMSO control),[1]; QST 100 nM (log[nM] 2),0.3524 and 0.2775
same,Cell viability (fraction of DMSO control),[1]; QST 250 nM (log[nM] 2.39794),0.3528 and 0.3396
same,Cell viability (fraction of DMSO control),[1]; QST 500 nM (log[nM] 2.69897),0.2416 and 0.229
same,Cell viability (fraction of DMSO control),[1]; QST 1000 nM (log[nM] 3),0.1715
same,Cell viability (fraction of DMSO control),"[2]; GB126 (GB126xTdT), QST 10 nM (log[nM] 1), no IR",0.8102 and 0.8005
same,Cell viability (fraction of DMSO control),"[2]; GB126 (GB126xTdT), QST 25 nM (log[nM] 1.39794), no IR",0.6353 and 0.6191
same,Cell viability (fraction of DMSO control),"[2]; GB126 (GB126xTdT), QST 50 nM (log[nM] 1.69897), no IR",0.4839 and 0.5154
same,Cell viability (fraction of DMSO control),"[2]; GB126 (GB126xTdT), QST 100 nM (log[nM] 2), no IR",0.3119 and 0.4774
same,viability at 0.01 µM,"[2]; Homo sapiens, GB126 (GB126xTdT), QST 10 nM (log[nM] 1), no IR, read-out: Cell viability (fraction of DMSO control)",79.2%
same,viability at 0.025 µM,"[2]; Homo sapiens, GB126 (GB126xTdT), QST 25 nM (log[nM] 1.39794), no IR, read-out: Cell viability (fraction of DMSO control)",66.8%
same,viability at 0.05 µM,"[2]; Homo sapiens, GB126 (GB126xTdT), QST 50 nM (log[nM] 1.69897), no IR, read-out: Cell viability (fraction of DMSO control)",57.6%
same,viability at 0.1 µM,"[2]; Homo sapiens, GB126 (GB126xTdT), QST 100 nM (log[nM] 2), no IR, read-out: Cell viability (fraction of DMSO control)",44.3%
same,IC50,"[2]; Homo sapiens, GB126, 3-5 days",0.086 µM
same,IC50,"[3]; Homo sapiens, 3-5 days",0.029 µM
same,viability at 0.01 µM,"[3]; Homo sapiens, QST 10 nM (log[nM] 1), read-out: Cell viability (fraction of DMSO control)",76.3%
same,viability at 0.025 µM,"[3]; Homo sapiens, QST 25 nM (log[nM] 1.39794), read-out: Cell viability (fraction of DMSO control)",68.5%
same,viability at 0.05 µM,"[3]; Homo sapiens, QST 50 nM (log[nM] 1.69897), read-out: Cell viability (fraction of DMSO control)",59.2%
same,viability at 0.1 µM,[3]; [5],46.1%
same,viability at 0.25 µM,[3]; [6],31.5%
same,viability at 0.5 µM,[3]; [7],24.4%
same,viability at 1 µM,[3]; [8],21.1%
same,Cell viability (fraction of DMSO control),[3]; QST 10 nM (log[nM] 1),0.687 and 0.6848
same,Cell viability (fraction of DMSO control),[3]; QST 25 nM (log[nM] 1.39794),0.6366 and 0.6132
same,Cell viability (fraction of DMSO control),[3]; QST 50 nM (log[nM] 1.69897),0.5332 and 0.5323
same,Cell viability (fraction of DMSO control),[3]; QST 100 nM (log[nM] 2),0.436 and 0.4247
same,Cell viability (fraction of DMSO control),[3]; QST 250 nM (log[nM] 2.39794),0.3077 and 0.3032
same,Cell viability (fraction of DMSO control),[3]; QST 500 nM (log[nM] 2.69897),0.2399 and 0.2412
same,Cell viability (fraction of DMSO control),[3]; QST 1000 nM (log[nM] 3),0.2213 and 0.2152
same,Cell viability (fraction of DMSO control),"[4]; GB239x3, QST 10 nM (log[nM] 1)",0.8159 and 0.818
same,Cell viability (fraction of DMSO control),"[4]; GB239x3, QST 25 nM (log[nM] 1.39794)",0.6846 and 0.6788
same,Cell viability (fraction of DMSO control),"[4]; GB239x3, QST 50 nM (log[nM] 1.69897)",0.5694 and 0.5366
same,Cell viability (fraction of DMSO control),"[4]; GB239x3, QST 100 nM (log[nM] 2)",0.3389 and 0.3234
same,Cell viability (fraction of DMSO control),"[4]; GB239x3, QST 250 nM (log[nM] 2.39794)",0.1954 and 0.198
same,Cell viability (fraction of DMSO control),"[4]; GB239x3, QST 500 nM (log[nM] 2.69897)",0.1408 and 0.1494
same,Cell viability (fraction of DMSO control),"[4]; GB239x3, QST 1000 nM (log[nM] 3)",0.1055 and 0.1137
same,viability at 0.01 µM,"[4]; Homo sapiens, GB239x3, QST 10 nM (log[nM] 1), read-out: Cell viability (fraction of DMSO control)",79.7%
same,viability at 0.025 µM,"[4]; Homo sapiens, GB239x3, QST 25 nM (log[nM] 1.39794), read-out: Cell viability (fraction of DMSO control)",64%
same,viability at 0.05 µM,"[4]; Homo sapiens, GB239x3, QST 50 nM (log[nM] 1.69897), read-out: Cell viability (fraction of DMSO control)",46.2%
same,viability at 0.1 µM,"[4]; Homo sapiens, GB239x3, QST 100 nM (log[nM] 2), read-out: Cell viability (fraction of DMSO control)",26%
same,viability at 0.25 µM,"[4]; Homo sapiens, GB239x3, QST 250 nM (log[nM] 2.39794), read-out: Cell viability (fraction of DMSO control)",15.6%
same,viability at 0.5 µM,"[4]; Homo sapiens, GB239x3, QST 500 nM (log[nM] 2.69897), read-out: Cell viability (fraction of DMSO control)",11.2%
same,viability at 1 µM,"[4]; Homo sapiens, GB239x3, QST 1000 nM (log[nM] 3), read-out: Cell viability (fraction of DMSO control)",8.92%
same,IC50,"[4]; Homo sapiens, GB239, 3-5 days",0.041 µM
